Data: ChEMBL document CHEMBL1777766, “Design, synthesis and in vitro antibacterial activity of 7-(4-alkoxyimino-3-aminomethylpiperidin-1-yl)fluoroquinolone derivatives” (Bioorg Med Chem Lett, 2011)
Converted amounts (≈) assume the structure as drawn.

Tests used:
[1] = test system: Serratia marcescens; test: Antibacterial activity against Serratia marcescens 41002; format: functional
[2] = test system: Klebsiella aerogenes; test: Antibacterial activity against Enterobacter aerogenes 45102; format: functional
[3] = test system: Proteus vulgaris; test: Antibacterial activity against Proteus vulgaris 56; format: functional
[4] = test system: Pseudomonas aeruginosa; test: Antibacterial activity against Pseudomonas aeruginosa 17; format: functional
[5] = test system: Staphylococcus epidermidis; test: Antibacterial activity against methicillin-sensitive Staphylococcus epidermidis 08-17; format: functional
[6] = test system: Streptococcus pneumoniae; test: Antibacterial activity against penicillin-resistant Streptococcus pneumoniae 08-2; format: functional
[7] = test system: Escherichia coli; test: Antibacterial activity against Escherichia coli ATCC 25922; format: functional
[8] = test system: Escherichia coli; test: Antibacterial activity against Extended spectrum beta-lactamase producing Escherichia coli 08-5; format: functional
[9] = test system: Streptococcus pyogenes; test: Antibacterial activity against Streptococcus pyogenes 556; format: functional
[10] = test system: Staphylococcus aureus; test: Antibacterial activity against Staphylococcus aureus ATCC 13709; format: functional
[11] = test system: Enterococcus faecalis; test: Antibacterial activity against Enterococcus faecalis ATCC 51299; format: functional
[12] = test system: Enterococcus faecalis; test: Antibacterial activity against vancomycin-resistant Enterococcus faecalis EFL1004; format: functional
[13] = test system: Klebsiella pneumoniae; test: Antibacterial activity against Klebsiella pneumoniae ATCC 700603; format: functional
[14] = test system: Shigella sonnei; test: Antibacterial activity against Shigella sonnei 51592; format: functional
[15] = test system: Providencia rettgeri; test: Antibacterial activity against Proteus rettgeri 49006; format: functional
[16] = test system: Staphylococcus aureus; test: Antibacterial activity against methicillin-resistant Staphylococcus aureus 08-52; format: functional
[17] = test system: Streptococcus pneumoniae; test: Antibacterial activity against Streptococcus pneumoniae ATCC 6301; format: functional
[18] = test system: Salmonella typhi; test: Antibacterial activity against Bacillus typhi 50035; format: functional, Salmonella enterica subsp. enterica serovar Typhi; conditions: Salmonella enterica
[19] = Cytotoxicity against african green monkey Vero cells after 24 hrs; format: cell-based; conditions: chlorocebus sabaeus
[20] = test system: Staphylococcus epidermidis; test: Antibacterial activity against methicillin-resistant Staphylococcus epidermidis 08-18; format: functional
[21] = test system: Staphylococcus epidermidis; test: Antibacterial activity against Staphylococcus epidermidis ATCC 12228; format: functional
[22] = test system: Staphylococcus aureus; test: Antibacterial activity against methicillin-sensitive Staphylococcus aureus 08-49; format: functional
[23] = test system: Enterobacter cloacae; test: Antibacterial activity against Enterobacter cloacae 45301; format: functional
[24] = test system: Acinetobacter calcoaceticus; test: Antibacterial activity against Acinetobacter calcoaceticus 25001; format: functional
[25] = test system: Morganella morganii; test: Antibacterial activity against Morganella morganii 49086; format: functional
[26] = test system: Pseudomonas aeruginosa; test: Ratio of MIC for compound to MIC for CPFX against Pseudomonas aeruginosa 17; format: functional
[27] = test system: Pseudomonas aeruginosa; test: Ratio of MIC for compound to MIC for LVFX against Pseudomonas aeruginosa 17; format: functional
[28] = test system: Pseudomonas aeruginosa; test: Ratio of MIC for compound to MIC for GMFX against Pseudomonas aeruginosa 17; format: functional

Structure (SMILES) | MIC [1] [µg/mL] | MIC [2] [µg/mL] | MIC [3] [µg/mL] | MIC [4] [µg/mL] | MIC [5] [µg/mL] | MIC [6] [µg/mL] | MIC [7] [µg/mL] | MIC [8] [µg/mL] | MIC [9] [µg/mL] | MIC [10] [µg/mL] | MIC [11] [µg/mL] | MIC [12] [µg/mL] | MIC [13] [µg/mL] | MIC [14] [µg/mL] | MIC [15] [µg/mL] | MIC [16] [µg/mL] | MIC [17] [µg/mL] | MIC [18] [µg/mL] | CC50 at 24 h [19] [µg/mL] | MIC [20] [µg/mL] | further results
CCO/N=C1\CCN(c2c(F)cc3c(=O)c(C(=O)O)cn(CCF)c3c2F)CC1CN (racemic) | 16 (≈ 36.3 µM) | 16 (≈ 36.3 µM) | 16 (≈ 36.3 µM) | 64 (≈ 145 µM) | 64 (≈ 145 µM) | 32 (≈ 72.7 µM) | 8 (≈ 18.2 µM) | > 128 | 64 (≈ 145 µM) | 8 (≈ 18.2 µM) | 16 (≈ 36.3 µM) | 64 (≈ 145 µM) | > 128 | 8 (≈ 18.2 µM) | 32 (≈ 72.7 µM) | 16 (≈ 36.3 µM) | 64 (≈ 145 µM) | 8 (≈ 18.2 µM) | > 500 | 8 (≈ 18.2 µM) | MIC [21]: 16 µg/mL (≈ 36.3 µM); MIC [22]: 8 µg/mL (≈ 18.2 µM); MIC [23]: 16 µg/mL (≈ 36.3 µM); MIC [24]: 128 µg/mL (≈ 291 µM); MIC [25]: 8 µg/mL (≈ 18.2 µM)
CO/N=C1\CCN(c2nc3c(cc2F)c(=O)c(C(=O)O)cn3-c2ccc(F)cc2F)CC1CN (racemic) | 8 (≈ 16.8 µM) | 2 (≈ 4.21 µM) | 8 (≈ 16.8 µM) | 4 (≈ 8.41 µM) | 2 (≈ 4.21 µM) | 0.5 (≈ 1.05 µM) | 1 (≈ 2.1 µM) | > 128 | 1 (≈ 2.1 µM) | 0.5 (≈ 1.05 µM) | 2 (≈ 4.21 µM) | 4 (≈ 8.41 µM) | 32 (≈ 67.3 µM) | 2 (≈ 4.21 µM) | 8 (≈ 16.8 µM) | 2 (≈ 4.21 µM) | 1 (≈ 2.1 µM) | 2 (≈ 4.21 µM) | 96 (≈ 202 µM) | 0.5 (≈ 1.05 µM) | Ratio [26]: 2; Ratio [27]: 2; Ratio [28]: 2; MIC [21]: 0.5 µg/mL (≈ 1.05 µM); MIC [22]: 0.25 µg/mL (≈ 0.526 µM); MIC [23]: 2 µg/mL (≈ 4.21 µM); MIC [24]: 4 µg/mL (≈ 8.41 µM); MIC [25]: 4 µg/mL (≈ 8.41 µM)
CCO/N=C1\CCN(c2nc3c(cc2F)c(=O)c(C(=O)O)cn3-c2ccc(F)cc2F)CC1CN (racemic) | 16 (≈ 32.7 µM) | 2 (≈ 4.09 µM) | 4 (≈ 8.17 µM) | 4 (≈ 8.17 µM) | 1 (≈ 2.04 µM) | 0.5 (≈ 1.02 µM) | 2 (≈ 4.09 µM) | > 128 | 4 (≈ 8.17 µM) | 0.25 (≈ 0.511 µM) | 1 (≈ 2.04 µM) | 4 (≈ 8.17 µM) | 32 (≈ 65.4 µM) | 2 (≈ 4.09 µM) | 8 (≈ 16.3 µM) | 1 (≈ 2.04 µM) | 2 (≈ 4.09 µM) | 2 (≈ 4.09 µM) | 72.6 (≈ 148 µM) | 0.25 (≈ 0.511 µM) | Ratio [26]: 2; Ratio [27]: 2; Ratio [28]: 2; MIC [21]: 0.25 µg/mL (≈ 0.511 µM); MIC [22]: 0.25 µg/mL (≈ 0.511 µM); MIC [23]: 2 µg/mL (≈ 4.09 µM); MIC [24]: 4 µg/mL (≈ 8.17 µM); MIC [25]: 4 µg/mL (≈ 8.17 µM)
CO/N=C1\CCN(c2c(F)cc3c(=O)c(C(=O)O)cn(C4CC4)c3c2OC)CC1CN (racemic) | 8 (≈ 18.5 µM) | 4 (≈ 9.25 µM) | 8 (≈ 18.5 µM) | 8 (≈ 18.5 µM) | 4 (≈ 9.25 µM) | 4 (≈ 9.25 µM) | 4 (≈ 9.25 µM) | > 128 | 8 (≈ 18.5 µM) | 0.5 (≈ 1.16 µM) | 4 (≈ 9.25 µM) | 8 (≈ 18.5 µM) | 64 (≈ 148 µM) | 4 (≈ 9.25 µM) | 8 (≈ 18.5 µM) | 4 (≈ 9.25 µM) | 4 (≈ 9.25 µM) | 4 (≈ 9.25 µM) | 395 (≈ 914 µM) | 4 (≈ 9.25 µM) | MIC [21]: 1 µg/mL (≈ 2.31 µM); MIC [22]: 0.25 µg/mL (≈ 0.578 µM); MIC [23]: > 128 µg/mL; MIC [24]: 4 µg/mL (≈ 9.25 µM); MIC [25]: 4 µg/mL (≈ 9.25 µM)
CCO/N=C1\CCN(c2c(F)cc3c(=O)c(C(=O)O)cn(C4CC4)c3c2OC)CC1CN (racemic) | 32 (≈ 71.7 µM) | 16 (≈ 35.8 µM) | 32 (≈ 71.7 µM) | 32 (≈ 71.7 µM) | 4 (≈ 8.96 µM) | 4 (≈ 8.96 µM) | 4 (≈ 8.96 µM) | > 128 | 8 (≈ 17.9 µM) | 1 (≈ 2.24 µM) | 4 (≈ 8.96 µM) | 8 (≈ 17.9 µM) | 128 (≈ 287 µM) | 8 (≈ 17.9 µM) | 32 (≈ 71.7 µM) | 2 (≈ 4.48 µM) | 8 (≈ 17.9 µM) | 4 (≈ 8.96 µM) | 173 (≈ 388 µM) | 2 (≈ 4.48 µM) | MIC [21]: 2 µg/mL (≈ 4.48 µM); MIC [22]: 0.25 µg/mL (≈ 0.56 µM); MIC [23]: > 128 µg/mL; MIC [24]: 8 µg/mL (≈ 17.9 µM); MIC [25]: 16 µg/mL (≈ 35.8 µM)
